Experiments:
[1] = cited from earlier work
[2] = in vivo, cited from earlier work
[3] = system: 4T1 breast cancer, TC1 lung cancer, EL4 thymoma, AE17 mesothelioma, AKR esophageal cancer flank tumors; assay: NIR labeling of syngeneic flank tumors in mice with systemic ICG (tissue spectrometer); settings: 7.5 mg/kg ICG via tail vein, next day, flank tumors ~200 mm^3, five cell lines
Experimental: (§1) Preclinical evidence for NM tumor labeling to detect primary and metastatic tumor deposits. (A) Six cancer cell types were injected into the flank of syngeneic mice. Once established (200 mm3), animals were dosed with 7.5 mg/kg of ICG and imaged. Tumors were harvested, imaged and stained for CD31. Histology images taken at 200× magnification (B) C57bl/6 mice (n=21) were injected with LLC cells in their flanks on Day 0. Starting on Day 12, the animals were euthanized, dosed with 7.5 mg/kg ICG 20 hours earlier and their thoracic cavities opened. Observers determined if the metastatic tumor nodules were visible in the lung. NIR imaging was then used to detect disease that was not visible to the un-assisted human eye.
After the tumors were well established (˜200 mm^3), 7.5 mg/kg of ICG was administered via the tail vein. The next day, a tissue spectrometer was used to semi-quantitate fluorescence from the tumor, surrounding tissue and 12 organs. […] Tumors were harvested, sectioned and assayed for microvessel density to determine if there was a correlation between tumor vascularity and fluorescence (FIG. 1a).
All mice were maintained in pathogen-free conditions and used for experiments at ages 8 week or older. […] Tumor cells for subcutaneous injections were suspended in 100 μL PBS. Tumor volume was calculated using the formula (π×long-axis×short-axis^2)/6. […]

human tumors [4] = assay: Semi-quantification of ICG concentration in tumors (imaging beside ICG standard panel); format: in vivo
Experimental: To quantify the concentration of ICG in the resected tissues, normal (control) and cancerous tissues were imaged ex vivo alongside a standard control panel of known concentrations of ICG aliquots mixed with plasma from the same patient. Our system was able to detect concentrations between 0 μg/ml and 2000 μg/ml. […] However, in the tumors, there was a broad range of ICG concentration. In 9 of the 10 specimens, the ICG concentration ranged from 2 to 100 μg/ml (FIG. 3c). No tumor fluoresced above an ICG concentration of 100 μg/ml. However, from a subjective point-of-view, the surgeon was not able to identify any tumors as more or less fluorescent. One cancer (metastatic melanoma) had less than 1 μg/ml of ICG and was not subjectively fluorescent to the surgeon. We also attempted to measure ICG concentration in the tissue by homogenizing punch biopsies and measuring fluorescence in a standard desk fluorometer, however, this approach was unreliable.
To quantify the maximum concentration of ICG in each tumor, 10 patients had their plasma collected at the time of operation. Two mg of ICG was dissolved in 1 ml of plasma and serially diluted 8 times to a final ratio of 1:20,000. 100 μL of stock solution and each dilution was then placed in consecutive wells in a black 96 well plate. When tumors were imaged ex-vivo, this plate was concurrently imaged. These images were then imported into ImageJ® software. Region of interest (ROI) data was taken from each of the 9 wells and from the tumor. The maximum fluorescent signal from the tumor was compared to the wells to determine the highest concentration per tumor. Each tumor was then categorized as have an ICG concentration between given the standards in the known panel.

[5] = Semi-quantification of ICG concentration in plasma (fluorometry); format: in vivo, human
Experimental: Techniques have been previously described to use fluorometry to quantify concentrations of ICG in plasma. We obtained aliquots of each patient's blood before injection with ICG. These samples were spun down at 1100 RPM for 10 minutes and aliquots of plasma were removed. 2 mg of ICG was dissolved in 1 ml of plasma and serially diluted thirteen times to a concentration of 125 μg per liter. 100 microliters of each of these dilutions were pipetted into a separate wells in a standard black 96 well plate along with one well of 100 microliters of plasma without ICG. At the time of operation, each patient had their plasma obtained and serially diluted six times to a final ratio of 1:1000. Plates were examined using a SpetraMax Fluorometer® with a peak excitation of 805 nm and 830 nm. Each well was scanned 6 times. Readings were export as Microsoft Excel® spread sheets.

human tumors [6] = assay: Ex vivo analysis of tumor fluorescence of resected specimens (NIR imaging, hand-held spectrometer); format: in vivo
Source text: Following in vivo imaging, the patients then underwent a standard-of-care surgical resection of the tumor. Once removed from the patient, the specimen was examined, opened, biopsied and analyzed ex vivo (FIG. 2a). Every case was photo-documented both by brightfield imaging and NIR imaging. […] Then, the hand held spectrometer was used to semi-quantitate tissue fluorescence. Each tumor had 4 measurements at four perpendicular locations and the center of the tumor (total of 20 measurements/tumor). Mean fluorescence in the human tumors was 53,304±4193 au in 25 out of 27 masses (93%) (FIG. 2b). We conjectured that the center of the tumor might be less fluorescent than the periphery due to necrosis or, conversely, that the center of the tumor might be more fluorescent than the periphery due to increased ICG retention. We found neither to be true. The fluorescence from the tumors was remarkably homogeneous throughout the tumor. We believe this reflects “bleed over” of the fluorescent signal from different areas of the tumor surface. The quality of the image was subjectively better ex vivo than in vivo due to the lack of respiratory motion, light artifact and glare from surrounding tissue retractors. Depending on the different tissues removed from each patient as part of the standard operation, a thorough spectroscopic examination was performed. The average signal diminished from over 50,000 au at the tumor margin to less than 12,000 au within 2 mm of the gross tumor margin. There were some higher signals in areas of atelectatic lung (range 0 to 24,832 au), however, this could easily be distinguished from the tumor by manual palpation. The background signal was measured from the patients' skin, muscles (latissmus dorsi, serratus anterior, intercostal), pericardium, normal lung, lymph nodes, adipose tissues, nerves (intercostal), airway and thymus whenever safely possible (FIG. 2b).
There were 25 cancers and 2 non-cancers (aspergilloma and pulmonary infarct). The two masses that were not fluorescent were a metastatic melanoma (7,342±411 au) and a pulmonary infarct (hematoma, 8,002±554 au). The aspergillus ball, a localized fungus infection, was fluorescent (58,209±1,302 au) likely due to the strong inflammatory reaction surrounding it. […] The pulmonary infarct or hematoma was an old clot secondary to trauma in a person that had been mistaken for a cancer on preoperative imaging. […]

chest and breast tumors = assay: Pilot patient study: intraoperative in vivo/in situ NIR imaging of tumor fluorescence
Experimental: Between January and June 2012, 27 consecutive patients who were candidates for surgical removal of chest and breast tumors were enrolled in this study (Table 1). Patients were given a single peripheral vein injection of 5 mg/kg ICG, 24 hours prior to surgery. […] Their ages ranged from 31 to 78 years (median=65 years). […] All enrolled patients were thought to have limited disease, amenable to surgery, and had no metastases (ie. potentially curable). […] Preoperative computed axial and positron emission tomography and/or magnetic resonance imaging predicted no metastatic disease in each case. The median tumor size was 2.0 cm (range 0.6-13.0 cm) on preoperative imaging. Each patient had serum obtained before and 24 hours after ICG injection.
To determine if indocyanine green would be delivered to human tumors, patients undergoing cancer surgery were first imaged in vivo at the onset of the operation. At the time of surgery, the chest was opened and inspected by standard visualization and manual palpation. […] A dual camera head with a brightfield and a NIR output was then used to visualize tumor fluorescence (FIG. 7). […] Attempts to quantitate tumor fluorescence in vivo were not feasible for several reasons including variations in operating room conditions, lack of miniaturized tissue spectrometer with safe laser light source and the inability to control for changes in distance from the specimen to the tip of the spectrometer. […] All quantitative measurements were made later ex vivo once the specimen had been removed. To examine in vivo data on the distribution of ICG, a complete visual examination of the each patients' skin, muscles (lattismus dorsi, serratus anterior, intercostal, diaphragm), pericardium and heart, aorta, normal lung, lymph nodes, adipose tissues, nerves (phrenic, intercostal), and thymus was performed whenever possible.
Thus, prior to closing the body cavity but after the tumor was removed, the chest or breast was inspected visually and by manual palpation for sites of cancer metastases. […] Then, to validate the surgeons' clinical decision, the chest was imaged for NIR fluorescence.
The other application of tumor fluorescence during surgery was to confirm that resection was complete and that no tumor cells were left behind in the surgical field. Thus, once the surgeons had completed each case and decided they had obtained disease clearance at the surgical site, the surgical wound and resection field was imaged.

Lewis Lung Cancer (LLC) = assay: NIR detection of flank tumors and pulmonary metastases in the LLC mouse model
Experimental: as §1
Starting on Day 12, mice (n=9) were injected with 7.5 mg/kg of ICG via tail vein every three days. […] Subsequently, the chest was opened and inspected for NIR emission from pulmonary metastases.
Female C57BL/6 (B6, Thy1.2), BALB/c, athymic Ncr-nu/nu and B6-12931 hybrid mice mice were purchased from Charles River Laboratories and Jackson Laboratories. All mice were maintained in pathogen-free conditions and used for experiments at ages 8 week or older. […] Tumor cells for subcutaneous injections were suspended in 100 μL PBS. Tumor volume was calculated using the formula (π×long-axis×short-axis^2)/6.
Pharmaceutical grade indocyanine green (ICG) was purchased from Akorn Pharmaceuticals (Lake Forest, Ill.). Mice received 7.5 mg/kg ICG via tail vein 20 hours prior to surgery.
A hand-held near infrared spectrometer has been previously described in detail.^18 In brief, a Raman probe detector was incorporated into a cylindrical stainless steel sampling head integrated with a 5 m, two-fiber cable; one for laser excitation and the other for light collection. The sampling head and fiber cable were coupled via an FC connector to a spectrometer. The combined sampling head and spectrometer system has a wavelength range of 800-930 nm with 0.6 nm spectral resolution for near infrared (NIR) fluorescence measurement. […] The signal can be semi-quantitated from 0 to 60,000 arbitrary units (au).

[7] = ex vivo spectroscopic examination

SMILES: CN(C)c1ccc2nc3ccc(=[N+](C)C)cc-3sc2c1 [MB, methylene blue]
- adverse reactions ([1]; 7.5 mg/kg, e.g. methemoglobinaemia or anaphylaxis): sometimes causes severe adverse reactions

SMILES: CC1(C)C(/C=C/C=C/C=C/C=C2\N(CCCCS(=O)(=O)[O-])c3ccc4ccccc4c3C2(C)C)=[N+](CCCCS(=O)(=O)[O-])c2ccc3ccccc3c21.[Na+] [ICG, indocyanine green]
- fraction of ICG binding to serum proteins (albumin, lipoproteins) upon injection into the blood [2]: 95%
- mean fluorescence from the tumor [3]: 54,238 au
- ICG concentration in tumors (human tumors [4]; 9 of the 10 specimens, ex vivo): 2 to 100 µg/mL
- ICG concentration in control tissues of normal lung (human tumors [4]; ex vivo, 5 mg/kg ICG): undetectable
- ICG concentration in metastatic melanoma (human tumors [4]; one cancer, not subjectively fluorescent): less than 1 μg/ml
- ICG in patient's plasma 24 hours after ICG injection ([5]; SpetraMax Fluorometer): No measurable ICG
- ICG in plasma after 20 hours ([5]; patients, 5 mg/kg ICG peripheral vein, fluorometric interrogation of serum): no patient had detectable ICG
- patients upstaged by intraoperative imaging of fluorescent tumors (2 out of 27 patients): 7.4%
- toxicities, adverse events or deaths related to injection of ICG (27 patients, 5 mg/kg ICG): no obvious toxicities, adverse events or deaths
- masses with strong fluorescence, qualitative NIR imaging (human tumors [6]; 25 out of 27 masses, ex vivo): 92%
- mean fluorescence in the human tumors (human tumors [6]; 25 out of 27 masses, ex vivo hand held spectrometer): 53,304±4193 au
- fluorescence of non-fluorescent metastatic melanoma (human tumors [6]; ex vivo): 7,342±411 au
- mean fluorescence of highly fluorescent melanoma (human tumors [6]; ex vivo): 57,210 au
- mean fluorescence of minimally fluorescent melanoma in a different patient (human tumors [6]; ex vivo): 7,332 au
- signal in areas of atelectatic lung (range) (human tumors [6]; ex vivo): 0 to 24,832 au
- average signal at the tumor margin (human tumors [6]; [7]): over 50,000 au
- average signal within 2 mm of the gross tumor margin (human tumors [6]; [7]): less than 12,000 au
- fluorescence of aspergillus ball (human tumors [6]; ex vivo, localized fungus infection): 58,209±1,302 au
- fluorescence of pulmonary infarct (hematoma) (human tumors [6]; ex vivo, non-cancer): 8,002±554 au
- background signal in surrounding tissue in the body cavity (human tumors [6]; skin, muscles, pericardium, normal lung, lymph nodes, adipose, nerves, airway, thymus): no evidence of background signal
- known toxicity of the agent ([1]; Indocyanine Green for Injection USP): no known toxicity
- cancer cases in which fluorescence identified unrecognized metastatic tumor deposits (chest and breast tumors; 2 patients, sites greater than 5 cm from primary tumor, confirmed by frozen biopsy): 8%
- cases in which dual camera head could detect tumor fluorescence in vivo (chest and breast tumors; 16 out of 27 cases, 5 mg/kg ICG 24 hours prior to surgery): 59%
- fluorescence of three metastatic sites in right lower pulmonary lobe (chest and breast tumors; Patient #2): > 48,000 au
- smallest metastatic nodule detected, diameter (chest and breast tumors; Patient #2): 0.4 mm
- mean fluorescence of breast mass in the operating room (chest and breast tumors; Patient #24, infiltrative ductal carcinoma): 52,748 au
- in vivo fluorescence of normal tissues (skin, muscles, pericardium, heart, aorta, lung, lymph nodes, adipose, nerves, thymus) (chest and breast tumors; all cases, visual examination): no tissue fluorescence except the abnormal tumor
- deepest tumor that could be detected, distance from the surface of the organ (chest and breast tumors; in vivo NIR imaging): ~1 cm
- Clinical Details: lesion fluorescence (chest and breast tumors; per case): Benign lesion did not glow.
- earliest day NIR signal from pulmonary metastases detected (Lewis Lung Cancer (LLC); LLC injected Day 0, 7.5 mg/kg ICG, deposits not visible to un-assisted eye): 15 days
- smallest pulmonary metastatic deposit detected (Lewis Lung Cancer (LLC); by histology): 0.4 mm
- background fluorescence (mean) (Lewis Lung Cancer (LLC); murine lung): 4290 au

SMILES: CN1C(=CC=C2CCCC(C=CC3=[N+](C)c4ccccc4C3(C)C)=C2Cl)C(C)(C)c2ccccc21.[O-][Cl+3]([O-])([O-])[O-] [IR-786]
- clearance after intravenous injection ([2]; iv): rapidly extracted into many tissues in the body, especially the liver, and is inefficiently transported into bile

— patent US20150030542A1, “METHODS FOR MEDICAL IMAGING” (priority 2013, published 2015)
